In US8551984B2, “Aminopyrimidines as SYK inhibitors” (Merck Sharp & Dohme Corp., priority 2009, dated 2013):

Target: recombinant human SYK (GST-hSYK fusion protein) (Homo sapiens, UniProt P43405)
Assay: biochemical
[1] = rhSYK Activity (IC50), recombinant human GST-SYK 5 pM, ATP 25 μM, biotinylated substrate peptide 250 nM, HTRF, 10-dose titration

Text: Homogeneous Time-Resolved Fluorescence (HTRF) Assay for the Recombinant Human SYK Enzyme:

Cc1cc(Nc2nccc(OC(C)C)n2)cc(-c2cnc([C@]3(O)CC[C@@H](C(=O)OC(C)(C)C)CC3)s2)c1 [Example 33A-34] was tested, and the IC50 (rhSYK Activity, Table 33-A) was 100 to 1000 nM.
Work on Cc1cc(Nc2nccc(C(F)(F)F)n2)cc(-c2cnc(C3(O)CCN(C(=O)CC4CCOC4)CC3)s2)c1 (centres unmarked) [Example 54A-40] yielded an IC50 (RHSYK Activity, Table 54A) of under 100 nM.
Cc1cc(Nc2nccc(C(F)(F)F)n2)cc(-c2cnc(C(O)(CCCC(=O)O)c3ccncc3)s2)c1 (centres unmarked) [Example 33D-25] was tested, and the IC50 (rhSYK Activity, Table 33D) was under 100 nM.
CC(=O)NCc1cc(Nc2nccc(C(F)(F)F)n2)cc(-c2cnc([C@@]3(O)CC[C@H](C(=O)O)C(C)(C)C3)s2)c1 [Example 125, (1S,4R)-4-[5-(3-[(acetylamino)methyl]-5-{[4-(trifluoromethyl)pyrimidin-2-yl]amino}phenyl)-1,3-thiazol-2-yl]-4-hydroxy-2,2-dimethylcyclohexanecarboxylic acid] was tested, and the IC50 [1] was under 100 nM.
Cc1cc(Nc2nccc(C(F)(F)F)n2)cc(-c2cnc(CNC3CCNC3=O)s2)c1 (centres unmarked) [Example 88A-35] was tested, and the IC50 [1] was under 100 nM.
COc1nc(Nc2cc(C)cc(-c3cnc(C4(O)CCC(C(=O)O)C(C)(C)C4)s3)c2)ncc1C (centres unmarked) [Example 100A-13] was tested, and the IC50 [1] was under 100 nM.
Cc1cc(Nc2nccc(C(F)(F)F)n2)cc(-c2cnc(C3(c4nnc(C)o4)CC3)s2)c1 [Example 85B-4] was tested, and the IC50 [1] was under 100 nM.
Work on Cc1cc(Nc2ncc(F)cn2)cc(-c2cnc(C3(O)CCC(C)(C(=O)O)CC3)s2)c1 (centres unmarked) [Example 33A-3] yielded an IC50 (rhSYK Activity, Table 33-A) of under 100 nM.
In the case of Cc1cc(Nc2nccc(C(F)(F)F)n2)cc(-c2cnc(CN3CCNC(=O)CC3)s2)c1 [Example 88B-7], the IC50 [1] is reported as under 100 nM.
Work on Cc1cc(Nc2nccc(C(F)(F)F)n2)cc(-c2cnc(C3(O)CCN(S(=O)(=O)C(C)C)CC3)s2)c1 [Example 54A-1] yielded an IC50 (RHSYK Activity, Table 54A) of under 100 nM.
Cc1cc(Nc2nccc(C(F)(F)F)n2)cc(-c2cnc(C(=O)N(C)Cc3nccn3C)s2)c1 [Example 87A-21] was tested, and the IC50 [1] was under 100 nM.
Compound Cc1cc(Nc2nccc(C(F)(F)F)n2)cc(-c2cnc(C(=O)N3CC[C@H](CO)C3)s2)c1 [Example 87B-16] has an IC50 [1] of under 100 nM.
Work on FC(F)(F)c1ccnc(Nc2cccc(-c3cnc(CN4CCOCC4)s3)c2)n1 [Example 21-6] yielded an IC50 (rhSYK Activity, Table 21) of under 100 nM.
In the case of O=C(O)[C@H]1CC[C@](O)(c2ncc(-c3cccc(Nc4nccc(C(F)(F)F)n4)c3)s2)CC1 [Example 33A-24], the IC50 (rhSYK Activity, Table 33-A) is reported as under 100 nM.
Cc1cnc(Nc2cc(C)cc(-c3cnc(C(C)(O)C(F)(F)F)s3)c2)nc1 (centres unmarked) [Example 100] was tested, and the IC50 [1] was under 100 nM.
COCCOc1ccnc(Nc2cc(C)cc(-c3cnc(C4(O)CCC(C(=O)O)C(C)C4)s3)c2)n1 (centres unmarked) [Example 113A-38] gave an IC50 (rhSYK Activity, Table 113A) of under 100 nM.
Compound COCCCc1ccnc(Nc2cc(C)cc(-c3cnc(C4(O)CCC(C(=O)OC(C)(C)C)CC4)s3)c2)n1 (centres unmarked) [Example 122, tert-butyl 4-hydroxy-4-[5-(3-{[4-(3-methoxypropyl)pyrimidin-2-yl]amino}-5-methylphenyl)-1,3-thiazol-2-yl]cyclohexanecarboxylate] has an IC50 [1] of 100 to 1000 nM.
For Cc1cc(Nc2nccc(C(F)(F)F)n2)cc(-c2cnc(C(=O)NCCS(C)(=O)=O)s2)c1 [Example 87A-5], the IC50 [1] was under 100 nM.
Compound Cc1cc(Nc2nccc(C(F)(F)F)n2)cc(-c2cnc(C3(O)CCC(C(=O)O)C(C)(C)C3C)s2)c1 (single isomer, unassigned) [Example 33A-77] has an IC50 (rhSYK Activity, Table 33-A) of under 100 nM.
CC1(C)C[C@@](O)(c2ncc(-c3cc(CNC(N)=O)cc(Nc4nccc(C(F)(F)F)n4)c3)s2)CC[C@@H]1C(=O)O [Example 124, (1S,4R)-4-[5-(3-[(carbamoylamino)methyl]-5-{[4-(trifluoromethyl)pyrimidin-2-yl]amino}phenyl)-1,3-thiazol-2-yl]-4-hydroxy-2,2-dimethylcyclohexanecarboxylic acid] showed an IC50 [1] of under 100 nM.
Cc1cc(Nc2nccc(OC(C)C)n2)cc(-c2cnc(C3(O)CCC(C(=O)O)C(C)C3)s2)c1 (centres unmarked) [116A-21] gave an IC50 (rhSYK Activity, Table 116A) of under 100 nM.
With Cc1cc(Nc2nccc(C(F)(F)F)n2)cc(-c2cnc(C3(O)CCN(C(=O)c4ccc(C#N)cc4)CC3)s2)c1 [Example 54A-56] the IC50 (RHSYK Activity, Table 54A) was under 100 nM.
Cc1cc(Nc2nccc(C#N)n2)cc(-c2cnc(C3(O)CCC3)s2)c1 [Example 100A-7] showed an IC50 [1] of under 100 nM.
For Cc1cc(Nc2nccc(C(F)(F)F)n2)cc(-c2cnc(CN3CCCNC(=O)C3)s2)c1 [Example 88B-8], the IC50 [1] was under 100 nM.
Work on Cc1cc(Nc2nccc(C(F)(F)F)n2)cc(-c2cnc(C3(O)CCCN(C(=O)C(O)CO)CC3)s2)c1 (single isomer, unassigned) [Example 54D-28] yielded an IC50 (rhSYK Activity, Table 54D) of under 100 nM.
Compound Cc1cc(Nc2nccc(C(F)(F)F)n2)cc(-c2cnc(C3(O)CCCN(C(=O)c4[nH]nnc4Cl)CC3)s2)c1 (single isomer, unassigned) [Example 54D-100] has an IC50 (rhSYK Activity, Table 54D) of under 100 nM.
In the case of FC(F)(F)c1ccnc(Nc2cccc(-c3cnc(C4(F)CCC4)s3)c2)n1 [26-3], the IC50 (rhSYK Activity, Table 26) is reported as 100 to 1000 nM.
Cc1cc(Nc2ncccn2)cc(-c2cnc(C3(O)CCC3)s2)c1 [Example 100A-3] was tested, and the IC50 [1] was 100 to 1000 nM.
For Cc1cc(Nc2nccc(C(F)F)n2)cc(-c2cnc([C@@]3(O)CC[C@H](C(=O)O)C(C)(C)C3)s2)c1 [116A-30], the IC50 (rhSYK Activity, Table 116A) was under 100 nM.
